Results: US9505749B2, “Quinazolinone compounds and derivatives thereof” (AMGEN INC., priority 2012, dated 2016)
Where two headings read alike, the source gives them in different places.

Assays:
[1] = test system: Axin2 accumulation in SW480 cells; assay: Axin2 384 immunofluorescence assay; type: cell-based; settings: Homo sapiens, read-out: Axin2 384 IF EC50
PARP2 = PARP2 (Homo sapiens (Human), UniProt Q9UGN5); assay: PARP2 biochemical assay (BPS kit)
[2] = test system: total β-catenin in SW480 colorectal cells; assay: Total β-catenin MSD 96-well plate assay for SW480 cells; settings: Homo sapiens, SW480, read-out: SW480-Total beta-catenin (TBC) IC50 IP
PARP1 = PARP1 (Homo sapiens (Human), UniProt P09874); assay: PARP1 biochemical assay (Trevigen kit)
Description: PARP1 biochemical assay was purchased as a kit from Trevigen (cat.#4676-096-K) and used per manufacturers recommendations.

[3] = biological target: 6×HIS-tankyrase 2 (946-1162) (Homo sapiens (Human), UniProt Q9H2K2); assay: Tankyrase 2 biochemical assay (AlphaLisa, PARsylation); settings: 250 nM NAD; read-out: TNKS2 IC50
6×HIS-tankyrase 2 (946-1162), sequence (Q9H2K2 946-1162): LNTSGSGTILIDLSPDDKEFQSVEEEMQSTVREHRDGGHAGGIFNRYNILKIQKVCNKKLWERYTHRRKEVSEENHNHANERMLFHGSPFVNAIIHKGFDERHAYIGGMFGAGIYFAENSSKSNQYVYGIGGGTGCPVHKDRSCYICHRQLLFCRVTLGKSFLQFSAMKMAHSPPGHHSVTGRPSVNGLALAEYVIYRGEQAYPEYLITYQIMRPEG

PARP1, sequence (P09874 whole entry): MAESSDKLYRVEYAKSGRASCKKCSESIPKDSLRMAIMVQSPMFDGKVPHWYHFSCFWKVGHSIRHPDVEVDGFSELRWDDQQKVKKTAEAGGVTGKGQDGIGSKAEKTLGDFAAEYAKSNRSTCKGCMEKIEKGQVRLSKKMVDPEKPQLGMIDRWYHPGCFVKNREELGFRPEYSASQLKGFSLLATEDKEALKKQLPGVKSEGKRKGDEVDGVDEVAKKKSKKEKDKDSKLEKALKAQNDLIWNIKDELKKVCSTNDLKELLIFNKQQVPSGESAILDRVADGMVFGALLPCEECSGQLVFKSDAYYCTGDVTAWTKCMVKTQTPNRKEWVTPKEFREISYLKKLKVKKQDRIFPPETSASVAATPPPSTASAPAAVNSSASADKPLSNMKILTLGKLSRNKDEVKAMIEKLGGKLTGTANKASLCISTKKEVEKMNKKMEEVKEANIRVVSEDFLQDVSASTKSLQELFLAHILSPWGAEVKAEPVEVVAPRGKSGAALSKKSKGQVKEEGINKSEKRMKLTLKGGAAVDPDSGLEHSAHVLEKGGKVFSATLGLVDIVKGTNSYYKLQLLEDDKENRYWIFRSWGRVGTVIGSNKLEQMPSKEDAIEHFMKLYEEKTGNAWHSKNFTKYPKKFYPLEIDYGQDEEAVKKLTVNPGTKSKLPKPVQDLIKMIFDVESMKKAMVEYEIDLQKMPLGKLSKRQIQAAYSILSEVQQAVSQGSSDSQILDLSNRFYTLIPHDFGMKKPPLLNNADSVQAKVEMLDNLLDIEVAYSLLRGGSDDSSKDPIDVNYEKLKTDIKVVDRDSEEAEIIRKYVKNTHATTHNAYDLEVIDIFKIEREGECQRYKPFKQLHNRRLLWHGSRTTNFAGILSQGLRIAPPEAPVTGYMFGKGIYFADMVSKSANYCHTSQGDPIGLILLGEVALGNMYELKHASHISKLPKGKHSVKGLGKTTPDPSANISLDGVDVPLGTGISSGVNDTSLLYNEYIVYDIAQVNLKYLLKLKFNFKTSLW
PARP2, sequence (Q9UGN5 whole entry): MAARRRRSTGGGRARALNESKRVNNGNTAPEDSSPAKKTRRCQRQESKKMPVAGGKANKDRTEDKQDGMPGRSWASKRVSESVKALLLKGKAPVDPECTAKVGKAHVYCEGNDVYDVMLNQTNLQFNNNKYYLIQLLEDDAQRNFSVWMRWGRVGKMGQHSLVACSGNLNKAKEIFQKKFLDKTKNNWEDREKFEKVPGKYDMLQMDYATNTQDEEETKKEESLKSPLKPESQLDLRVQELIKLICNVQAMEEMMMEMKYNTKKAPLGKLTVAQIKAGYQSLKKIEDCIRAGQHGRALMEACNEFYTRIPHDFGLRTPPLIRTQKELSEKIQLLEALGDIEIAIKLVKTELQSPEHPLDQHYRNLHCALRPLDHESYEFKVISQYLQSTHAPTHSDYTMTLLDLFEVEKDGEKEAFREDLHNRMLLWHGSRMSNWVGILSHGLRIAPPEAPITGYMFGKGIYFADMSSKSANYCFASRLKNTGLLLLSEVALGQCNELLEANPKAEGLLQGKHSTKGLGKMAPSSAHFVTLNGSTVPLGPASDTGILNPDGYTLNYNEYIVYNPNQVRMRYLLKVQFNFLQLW

Structure (SMILES) | EC50 ([1]; SW480 cells, 24 hours) [nM] | IC50 (PARP2) [nM] | IC50 [2] [nM] | IC50 (PARP1) [µM] | IC50 [3] [nM] | EC50 ([1]; SW480, 24 h) [nM]
O=C(CSc1nc2ccccc2c(=O)[nH]1)N[C@H]1CC[C@H](c2nnc(-c3ccccc3)o2)CC1 [Example 96, 2-((4-oxo-3,4-dihydroquinazolin-2-yl)thio)-N-((1r,4r)-4-(5-phenyl-1,3,4-oxadiazol-2-yl)cyclohexyl) acetamide] | 536 | 1570 | 91.2 | 28.8 | – | –
O=C(CCc1nc2ccccc2c(=O)[nH]1)N[C@H]1CC[C@H](c2nnc(Cc3ccccc3)o2)CC1 [Example 139, N-((1r,4r)-4-(5-benzyl-1,3,4-oxadiazol-2-yl)cyclohexyl)-3-(4-oxo-3,4-dihydroquinazolin-2-yl)propanamide] | > 25000 | 1130 | – | 8.22 | 624 | –
O=C(CCc1nc2ccccc2c(=O)[nH]1)N[C@H]1CC[C@H](c2nnc(-c3ccccc3F)o2)CC1 [Example 126, N-((1r,4r)-4-(5-(2-fluorophenyl)-1,3,4-oxadiazol-2-yl)cyclohexyl)-3-(4-oxo-3,4-dihydroquinazolin-2-yl)propanamide] | – | – | – | 5.1 | – | –
O=C(CCc1nc2ccccc2c(=O)[nH]1)N[C@H]1CC[C@H](c2nnc(-c3ccc(F)cc3)o2)CC1 [Example 127, N-((1r,4r)-4-(5-(4-fluorophenyl)-1,3,4-oxadiazol-2-yl)cyclohexyl)-3-(4-oxo-3,4-dihydroquinazolin-2-yl)propanamide] | 307 | 2310 | 157 | 1.97 | 12.7 | –
O=C(CCc1nc2ccccc2c(=O)[nH]1)N[C@H]1CC[C@H](c2nnc(-c3cccc(F)c3)o2)CC1 [Example 129, N-((1r,4r)-4-(5-(3-fluorophenyl)-1,3,4-oxadiazol-2-yl)cyclohexyl)-3-(4-oxo-3,4-dihydroquinazolin-2-yl)propanamide] | 435 | 1960 | 124 | 1.09 | 12.8 | –
O=C(CCc1nc2ccccc2c(=O)[nH]1)N[C@H]1CC[C@H](c2nnc(-c3cccc(Cl)c3)o2)CC1 [Example 130, N-((1r,4r)-4-(5-(3-chlorophenyl)-1,3,4-oxadiazol-2-yl)cyclohexyl)-3-(4-oxo-3,4-dihydroquinazolin-2-yl)propanamide] | 240 | 944 | 110 | 0.998 | 7.92 | –
O=C(CCc1nc2ccccc2c(=O)[nH]1)N[C@H]1CC[C@H](c2nnc(-c3ccccc3Cl)o2)CC1 [Example 128, N-((1r,4r)-4-(5-(2-chlorophenyl)-1,3,4-oxadiazol-2-yl)cyclohexyl)-3-(4-oxo-3,4-dihydroquinazolin-2-yl)propanamide] | 1750 | 276 | 592 | 3.89 | 81.3 | –
O=C(CCSc1nc2ccccc2c(=O)[nH]1)N[C@H]1CC[C@H](Oc2ccc(F)cc2)CC1 [Example 100, N-((1r,4r)-4-(4-fluorophenoxy)cyclohexyl)-3-((4-oxo-3,4-dihydroquinazolin-2-yl)thio) propanamide] | 22.7 | 4950 | 16.7 | – | – | –
O=C(CCCc1nc2ccccc2c(=O)[nH]1)N[C@H]1CC[C@H](c2nnc(-c3ccc(F)cc3)o2)CC1 [Example 28, N-(trans-4-(5-(4-fluorophenyl)-1,3,4-oxadiazol-2-yl)cyclohexyl)-4-(4-oxo-3,4-dihydro-2-quinazolinyl)butanamide] | 18.5 | 1760 | 15.9 | – | 0.303 | –
O=C(CCSc1nccc(=O)[nH]1)N[C@H]1CC[C@H](c2nnc(-c3ccccc3)o2)CC1 [Example 123, 3-((6-oxo-1,6-dihydropyrimidin-2-yl)thio)-N-((1r,4r)-4-(5-phenyl-1,3,4-oxadiazol-2-yl)cyclohexyl)propanamide] | 3330 | > 170000 | 2130 | > 85 | – | –
O=C1Nc2cc(Cl)ccc2C1C1CCN(C(=O)CCCc2nc3ccccc3c(=O)[nH]2)CC1 (racemic) [Example 76, 2-(4-(4-((3S)-6-chloro-2-oxo-2,3-dihydro-1H-indol-3-yl)-1-piperidinyl)-4-oxobutyl)-4(3H)-quinazolinone trifluoroacetic acid and 2-(4-(4-((3R)-6-chloro-2-oxo-2,3-dihydro-1H-indol-3-yl)-1-piperidinyl)-4-oxobutyl)-4(3H)-quinazolinone trifluoroacetic acid] | – | – | 3020 | – | – | 2950
N#Cc1ccc(-c2nnc([C@H]3CC[C@H](NC(=O)CCc4nc5ccccc5c(=O)[nH]4)CC3)o2)cc1 [Example 134, N-((1r,4r)-4-(5-(4-cyanophenyl)-1,3,4-oxadiazol-2-yl)cyclohexyl)-3-(4-oxo-3,4-dihydroquinazolin-2-yl)propanamide] | – | 2110 | 253 | – | 14.2 | –

More lines, main results first:

EC50 ([1]; SW480 cells, 24 hours) [nM] | IC50 (PARP2) [nM] | IC50 [2] [nM] | IC50 (PARP1) [µM] | IC50 [3] [nM] | Structure (SMILES) | EC50 ([1]; SW480, 24 h) [nM]
8750 | 8450 | 1950 | – | – | O=C(CCc1nc2ncccc2c(=O)[nH]1)N[C@H]1CC[C@H](c2nnc(-c3ccccc3)o2)CC1 [Example 81, 3-(4-oxo-3,4-dihydropyrido[2,3-d]pyrimidin-2-yl)-N-((1r,4r)-4-(5-phenyl-1,3,4-oxadiazol-2-yl)cyclohexyl) propanamide] | –
35.9 | – | 20 | > 85 | – | O=C(CCSc1nc2ccccc2c(=O)[nH]1)N[C@H]1CC[C@H](Oc2ccc(Cl)cc2)CC1 [Example 105, N-((1r,4r)-4-(4-chlorophenoxy)cyclohexyl)-3-((4-oxo-3,4-dihydroquinazolin-2-yl)thio) propanamide] | –
1190 | 1060 | 960 | 10.8 | 32.7 | O=C(CCc1nc2ccccc2c(=O)[nH]1)N[C@H]1CC[C@H](c2nnc(-c3cccnc3)o2)CC1 [Example 136, 3-(4-oxo-3,4-dihydroquinazolin-2-yl)-N-((1r,4r)-4-(5-(pyridin-3-yl)-1,3,4-oxadiazol-2-yl)cyclohexyl)propanamide] | –
783 | 421 | 252 | 0.936 | 15.2 | O=C(CCc1nc2ccc(F)cc2c(=O)[nH]1)N[C@H]1CC[C@H](c2nnc(-c3ccccc3)o2)CC1 [Example 101, 3-(6-fluoro-4-oxo-3,4-dihydroquinazolin-2-yl)-N-((1r,4r)-4-(5-phenyl-1,3,4-oxadiazol-2-yl)cyclohexyl)propanamide] | –
– | 2640 | 488 | 2.45 | – | O=C(CCc1nc2ccccc2c(=O)[nH]1)N[C@H]1CC[C@H](c2nnc(-c3ccncc3)o2)CC1 [Example 132, 3-(4-oxo-3,4-dihydroquinazolin-2-yl)-N-((1r,4r)-4-(5-(pyridin-4-yl)-1,3,4-oxadiazol-2-yl)cyclohexyl)propanamide] | –
12100 | – | 1770 | 5.65 | 187 | O=C(CCc1nc2ccccc2c(=O)[nH]1)N[C@H]1CC[C@H](c2nnc(-c3ccccn3)o2)CC1 [Example 131, 3-(4-oxo-3,4-dihydroquinazolin-2-yl)-N-((1r,4r)-4-(5-(pyridin-2-yl)-1,3,4-oxadiazol-2-yl)cyclohexyl)propanamide] | –
50.9 | > 170000 | 47.8 | > 85 | – | N#Cc1cccc(O[C@H]2CC[C@H](NC(=O)CCSc3nc4ccccc4c(=O)[nH]3)CC2)c1 [Example 109] | –
– | 1870 | > 10000 | 4.62 | – | O=C(CCc1nc2ccccc2c(=O)[nH]1)N[C@H]1CC[C@H](c2nnc(-c3ncccn3)o2)CC1 [Example 133, 3-(4-oxo-3,4-dihydroquinazolin-2-yl)-N-((1r,4r)-4-(5-(pyrimidin-2-yl)-1,3,4-oxadiazol-2-yl)cyclohexyl)propanamide] | –
– | 530 | 1020 | 3.5 | – | O=C(CCc1nc2c(c(=O)[nH]1)CCCN2)N[C@H]1CC[C@H](c2nnc(-c3ccccc3)o2)CC1 [Example 88, 3-(4-oxo-3,4,5,6,7,8-hexahydropyrido[2,3-d]pyrimidin-2-yl)-N-((1r,4r)-4-(5-phenyl-1,3,4-oxadiazol-2-yl)cyclohexyl)propanamide] | –
6490 | 1700 | – | 5.47 | 203 | O=C(CCc1nc2ccccc2c(=O)[nH]1)N[C@H]1CC[C@H](c2nnc(-c3cnccn3)o2)CC1 [Example 142, 3-(4-oxo-3,4-dihydroquinazolin-2-yl)-N-((1r,4r)-4-(5-(pyrazin-2-yl)-1,3,4-oxadiazol-2-yl)cyclohexyl)propanamide] | –
642 | 982 | 79.7 | 2.7 | – | O=C(CCc1nc2ccccc2c(=O)[nH]1)N[C@H]1CC[C@H](c2nnc(-c3ccccc3)o2)CC1 [Example 2, 3-(4-oxo-3,4-dihydro-2-quinazolinyl)-N-(trans-4-(5-phenyl-1,3,4-oxadiazol-2-yl)cyclohexyl)propanamide] | –
228 | 677 | 118 | – | – | O=C(CCc1nc2ccccc2c(=O)[nH]1)N[C@H]1CC[C@H](c2nnc(-c3ccc(Cl)cc3)o2)CC1 [Example 141, N-((1r,4r)-4-(5-(4-chlorophenyl)-1,3,4-oxadiazol-2-yl)cyclohexyl)-3-(4-oxo-3,4-dihydroquinazolin-2-yl)propanamide] | –
> 25000 | 2610 | – | 5.45 | – | O=C(CCc1nc2ccccc2c(=O)[nH]1)N[C@H]1CC[C@H](c2nnc(C3CCCCC3)o2)CC1 [Example 138, N-((1r,4r)-4-(5-cyclohexyl-1,3,4-oxadiazol-2-yl)cyclohexyl)-3-(4-oxo-3,4-dihydroquinazolin-2-yl)propanamide] | –
